{"source": "patent US12371454B2", "about": "“Cyclic peptide compound having Kras inhibitory action” (priority 2019, dated 2025)", "note": "Positions of bridges follow the written chain, without caps; N, C: chain ends. Non-standard residues stand in square brackets, D forms with d. Residues, ends and D or L forms follow the SMILES beside them. *: point of attachment. hPhe(3,5-F2-4-CF3) = N[C@@H](CCc1cc(F)c(C(F)(F)F)c(F)c1)C(=O)O; hPhe(3-Cl-4-CF3) = N[C@@H](CCc1ccc(C(F)(F)F)c(Cl)c1)C(=O)O; hPhe(4-CF3) = N[C@@H](CCc1ccc(C(F)(F)F)cc1)C(=O)O; NMeAla(4-thiazolyl) = CN[C@@H](Cc1cscn1)C(=O)O; NMePhe(4-Cl) = CN[C@@H](Cc1ccc(Cl)cc1)C(=O)O; NMePhe(4-Me) = CN[C@@H](Cc1ccc(C)cc1)C(=O)O; NMePhe(3-F) = CN[C@@H](Cc1cccc(F)c1)C(=O)O; NMeGly(cPent) = CN[C@H](C(=O)O)C1CCCC1; Phe(3-I) = N[C@@H](Cc1cccc(I)c1)C(=O)O; Pro(4,4-F2) = O=C(O)[C@@H]1CC(F)(F)CN1; Phe(2-Me) = Cc1ccccc1C[C@H](N)C(=O)O; NMeGly(cBu) = CN[C@H](C(=O)O)C1CCC1; NMeCha = CN[C@@H](CC1CCCCC1)C(=O)O; NMeChg = CN[C@H](C(=O)O)C1CCCCC1; NMeI = CC[C@H](C)[C@H](NC)C(=O)O; NMeD = CN[C@@H](CC(=O)O)C(=O)O; NMeL = CN[C@@H](CC(C)C)C(=O)O; d(β3hA) = C[C@@H](N)CC(=O)O; NMeS = CN[C@@H](CO)C(=O)O; NMeA = CN[C@@H](C)C(=O)O; NMeAib = CNC(C)(C)C(=O)O; Nle = CCCC[C@H](N)C(=O)O; Piperidide = C1CCN(*)CC1; Pyrrolidide = C1CCN(*)C1; dNMeA = CN[C@H](C)C(=O)O; Ac5c = NC1(C(=O)O)CCCC1; Aze = O=C(O)[C@@H]1CCN1; Sar = CNCC(=O)O; Propyl = CCC*", "data": [{"molecular_target": "T1, Kras and SOS1 (biotin-tagged human Kras loaded with GDP, His-tagged human SOS1) (Homo sapiens, UniProt P01116, G12D)", "T1 construct": "made in house; host or cells: E. coli (stated for Kras only)", "T1 sequence (P01116 1-188 isoform P01116-2 G12D)": "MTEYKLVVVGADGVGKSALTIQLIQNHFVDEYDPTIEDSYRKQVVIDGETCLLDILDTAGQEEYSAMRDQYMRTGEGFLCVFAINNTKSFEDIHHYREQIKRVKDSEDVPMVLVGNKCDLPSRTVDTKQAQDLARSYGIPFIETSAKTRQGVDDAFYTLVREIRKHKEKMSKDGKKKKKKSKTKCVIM", "test": "Protein-protein interaction inhibition between Kras and SOS1 (KrasGl2D-SOS PPI) using AlphaScreen", "assay_type": "binding", "conditions": "AlphaScreen; biotin-tagged human Kras loaded with GDP, His-tagged human SOS1; read-out: KRAS G12D-SOS PPI IC50", "in_short": "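AlphaScreen format: Ni donor beads capture His-SOS1, streptavidin acceptor beads capture biotinylated Kras (E. coli-expressed, GDP-loaded post-purification). Excite 680 nm, read 520-620 nm.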", "units": {"IC50": "nM"}, "values": [{"smiles": "CC[C@H](C)[C@@H]1NC(=O)[C@H](C2CCC2)N(C)C(=O)C[C@@H](C(=O)N2CCCC2)N(C)C(=O)[C@H](C2CCCCC2)N(C)C(=O)C2(CCCC2)NC(=O)[C@@H]2CC(F)(F)CN2C(=O)[C@H](CCc2cc(F)c(C(F)(F)F)c(F)c2)NC(=O)CN(C)C(=O)[C@H](CC2CCCCC2)N(C)C(=O)CN(C)C(=O)CN(C)C1=O", "note": "[Compound 1295] ([NMeGly(cBu)]I[Sar][Sar][NMeCha][Sar][hPhe(3,5-F2-4-CF3)][Pro(4,4-F2)][Ac5c][NMeChg][NMeD]-Pyrrolidide; lactam N-11)", "IC50": 0.5}, {"smiles": "CC[C@H](C)[C@@H]1NC(=O)[C@H](CC(C)C)N(C)C(=O)C[C@@H](C(=O)N2CCCCC2)N(C)C(=O)[C@H](CC(C)C)NC(=O)C(C)(C)N(C)C(=O)[C@H](Cc2ccccc2C)NC(=O)[C@H](Cc2cccc(I)c2)NC(=O)CN(C)C(=O)[C@H](Cc2ccc(C)cc2)N(C)C(=O)[C@@H]2CCN2C(=O)CN(C)C1=O", "note": "[Compound 335] ([NMeL]I[Sar][Aze][NMePhe(4-Me)][Sar][Phe(3-I)][Phe(2-Me)][NMeAib]L[NMeD]-Piperidide; lactam N-11)", "IC50": 67}, {"smiles": "CC[C@H](C)[C@@H]1NC(=O)[C@H](CC(C)C)N(C)C(=O)C[C@@H](C(=O)N(C)C)N(C)C(=O)[C@H](C2CCCC2)N(C)C(=O)[C@H](C)NC(=O)[C@H](Cc2cscn2)N(C)C(=O)[C@H](CCc2ccc(C(F)(F)F)c(Cl)c2)NC(=O)CN(C)C(=O)[C@H](CC2CCCCC2)N(C)C(=O)[C@@H]2CCN2C(=O)[C@H](C)N(C)C1=O", "note": "[Compound 805] ([NMeL]I[NMeA][Aze][NMeCha][Sar][hPhe(3-Cl-4-CF3)][NMeAla(4-thiazolyl)]A[NMeGly(cPent)][NMeD]-NMe2; lactam N-11)", "IC50": 38}, {"smiles": "CC[C@H](C)[C@@H]1NC(=O)[C@H](C)N(C)C(=O)C[C@@H](C(=O)N2CCCC2)NC(=O)[C@H](CC(C)C)N(C)C(=O)[C@H](CC2CCCCC2)N(C)C(=O)[C@H](CC(C)C)NC(=O)[C@H](CCc2ccc(C(F)(F)F)cc2)NC(=O)CN(C)C(=O)[C@H](Cc2ccc(Cl)cc2)N(C)C(=O)CN(C)C(=O)CN(C)C1=O", "note": "[Compound 536] ([NMeA]I[Sar][Sar][NMePhe(4-Cl)][Sar][hPhe(4-CF3)]L[NMeCha][NMeL]D-Pyrrolidide; lactam N-11)", "IC50": 230}, {"smiles": "CC[C@H](C)[C@@H]1NC(=O)[C@H](C)N(C)C(=O)C[C@@H](C)NC(=O)[C@H](C2CCCC2)N(C)C(=O)C2(CCCC2)NC(=O)[C@@H]2CCCN2C(=O)[C@H](CCc2ccc(C(F)(F)F)c(Cl)c2)NC(=O)CN(C)C(=O)[C@H](Cc2cccc(F)c2)N(C)C(=O)[C@@H]2CCCN2C(=O)CN(C)C1=O", "note": "[Compound 194] (cyclo([Ac5c][NMeGly(cPent)][d(β3hA)][NMeA]I[Sar]P[NMePhe(3-F)][Sar][hPhe(3-Cl-4-CF3)]P))", "IC50": 27}, {"smiles": "CC[C@H](C)[C@@H]1NC(=O)[C@H](C)N(C)C(=O)C[C@@H](C)NC(=O)[C@H](C2CCCC2)N(C)C(=O)C2(CCCC2)NC(=O)[C@@H]2CCCN2C(=O)[C@H](CCc2ccc(C(F)(F)F)c(Cl)c2)NC(=O)[C@@H](C)N(C)C(=O)[C@H](C)N(C)C(=O)[C@@H]2CCN2C(=O)[C@H](C)N(C)C1=O", "note": "[Compound 396] (cyclo([Ac5c][NMeGly(cPent)][d(β3hA)][NMeA]I[NMeA][Aze][NMeA][dNMeA][hPhe(3-Cl-4-CF3)]P))", "IC50": 220}, {"smiles": "CCCC[C@@H]1NC(=O)[C@H](Cc2cccc(I)c2)NC(=O)CN(C)C(=O)[C@H](CC2CCCCC2)N(C)C(=O)[C@@H]2CCN2C(=O)CN(C)C(=O)[C@H]([C@@H](C)CC)NC(=O)[C@H](CC(C)C)N(C)C(=O)C[C@@H](C(=O)N2CCCCC2)N(C)C(=O)[C@H](CC(C)C)NC(=O)C(C)(C)N(C)C1=O", "note": "[Compound 1420] ([NMeL]I[Sar][Aze][NMeCha][Sar][Phe(3-I)][Nle][NMeAib]L[NMeD]-Piperidide; lactam N-11)", "IC50": 89}, {"smiles": "CC[C@H](C)[C@@H]1NC(=O)[C@H](CC(C)C)N(C)C(=O)C[C@@H](C(=O)N2CCCC2)N(C)C(=O)[C@H]([C@@H](C)CC)N(C)C(=O)C2(CCCC2)NC(=O)[C@@H]2CCCN2C(=O)[C@H](CCc2ccc(C(F)(F)F)c(Cl)c2)NC(=O)CN(C)C(=O)[C@H](CC2CCCCC2)N(C)C(=O)CN(C)C(=O)CN(C)C1=O", "note": "[Compound 1662] ([NMeL]I[Sar][Sar][NMeCha][Sar][hPhe(3-Cl-4-CF3)]P[Ac5c][NMeI][NMeD]-Pyrrolidide; lactam N-11)", "IC50": 0.65}, {"smiles": "CCCOC[C@H]1C(=O)N(C)[C@@H](CC(C)C)C(=O)N[C@H](C(=O)N2CCCC2)CC(=O)N(C)[C@@H](C)C(=O)N[C@@H]([C@@H](C)CC)C(=O)N(C)CC(=O)N(C)CC(=O)N(C)[C@@H](Cc2ccc(Cl)cc2)C(=O)N(C)CC(=O)N[C@@H](CCc2ccc(C(F)(F)F)cc2)C(=O)N[C@@H](CC(C)C)C(=O)N1C", "note": "[Compound 739] ([NMeA]I[Sar][Sar][NMePhe(4-Cl)][Sar][hPhe(4-CF3)]L[NMeS](Propyl)[NMeL]D-Pyrrolidide; lactam N-11)", "IC50": 36}]}]}
